Assay: pH-dependent bleaching of Lissamine green B dye by NaDCC
Format: physicochemical
Conditions: 10 mg NaDCC in 20 mL
Experimental: Two different solutions, Solution A and Solution B, were prepared. Solution A contained 2% SAPP, 0.1% Lissamine green B dye, and 97.9% water. Solution B contained 2% tetrasodium pyrophosphate (TSPP), 0.1% Lissamine green B dye, and 97.9% water. Next, solutions with various pHs were obtained by mixing the two different solutions A and B, in different volume ratios (i.e., 1:0, 1:5, 1:1, 5:1, and 0:1). 20 mL of the resulting solutions were added to 10 mg NaDCC, and the time required to bleach away all of the Lissamine green B color was recorded.

SMILES: O=c1nc([O-])n(Cl)c(=O)n1Cl.[Na+] [NaDCC, sodium dichloroisocyanurate]
- Time to bleach (Mix Solution 1, VA:VB 1:0, pH 4.6): Instantaneous
- Time to bleach (Mix Solution 2, VA:VB 1:5, pH 5.8): 0.25 min
- Time to bleach (Mix Solution 3, VA:VB 1:1, pH 7.4): 8 min
- Time to bleach (Mix Solution 4, VA:VB 5:1, pH 8.8): 35 min
- Time to bleach (Mix Solution 5, VA:VB 0:1, pH 10.5): 80 min

Reference: patent publication US20200046620A1, “Solid Compositions for Teeth Whitening and Anti-Microbial Effects” (Colgate-Palmolive Company, priority 2018, published 2020)
